Measurements as given in patent US20260013502A1, “METHOD FOR TERMINATING COVER CROP GROWTH” (SUMITOMO CHEMICAL COMPANY, LIMITED, priority 2022, published 2026).
“And” between values parts separate entries of the source, which are not always exact repeats. Identical values can stand only once. Counter-ions that a name gives are not always drawn.

Columns and labels:
barley (Hordeum vulgare) = assay: Example 3: outdoor boom-sprayer foliar application to overwintered barley at internode elongation stage; type: in vivo; settings: 30 g/ha epyrifenacil, EC 55 g/L, 0.5% Agri-Dex + 1% ammonium sulfate, 250 L/ha
Procedure: At the internode elongation stage of barley (Hordeum vulgare) seeded in the autumn and overwintered outdoors in a corn cultivation trace, epyrifenacil emulsifiable concentrate (55 g/L) was diluted with water containing 0.5% (v/v) adjuvant Agri-Dex+1% (w/v) ammonium sulfate, and the barley is subjected to foliar application using a boom sprayer at a spray volume of 250 L/ha to deliver 30 g/ha of epyrifenacil.

[1] = test system: edible radish (Daikon Radish); assay: Example 8: greenhouse pot test, foliar application, termination of radish growth; type: in vivo, Raphanus sativus; settings: for Dry matter weight: radish entire plant at growth termination, average of 3 pots; for Growth termination date / Date at the beginning of the onset of effect: epyrifenacil 25 g/ha applied 21 days after seeding, glyphosate-potassium salt 1,543 g/ha applied 15 days after seeding; for Date at the beginning of the onset of effect: visual change in leaf color in all 3 pots, day relative to application
Procedure: (§1) A plastic pot was filled with soil, and edible radish (Daikon Radish) was seeded and grown in a greenhouse. Fifteen days after seeding, RoundupPowerMax was diluted with water, and then the radish was subjected to foliar application from above using an automatic sprayer at a spray volume of 200 L/ha to achieve an application rate of 1,543 g/ha as glyphosate-potassium salt.
(§2) At the same time, the radish was similarly seeded in another plastic pot and grown. Twenty-one days after seeding, epyrifenacil emulsifiable concentrate (55 g/L) was diluted with water containing 1% (v/v) adjuvant Agri-Dex, and then the radish was subjected to foliar application from above using an automatic sprayer at a spray volume of 200 L/ha to achieve an application rate of 25 g/ha.
(§3) After application with the herbicide, the radish was grown in a greenhouse, and in case the growth was terminated, the entire plant was dug up at termination of the growth and the dry matter weight was measured. In this test, the growth was judged to be terminated when death of terminal and lateral buds was visually confirmed. The date at the beginning of the onset of effect, the growth termination date, and the dry matter weight at the time of growth termination are shown in Table 2. The onset of the effect was judged by visually observing the change in leaf color. Application with each herbicide was performed using three pots. The date at the beginning of the onset of effect and the growth termination date in the table were dates on which the onset of effect and growth termination were confirmed in all three pots, respectively. The dry matter weight was the average of the three pots.

[2] = test system: cereal rye (Secale cereale); assay: Example 1: outdoor boom-sprayer foliar application to overwintered cereal rye at heading stage; type: in vivo; settings: 40 g/ha epyrifenacil, EC 55 g/L, 0.5% MSO + 1% ammonium sulfate, 189 L/ha
Procedure: At the heading stage of cereal rye (Secale cereale) seeded in the autumn and overwintered outdoors after corn cultivation, epyrifenacil emulsifiable concentrate (55 g/L) was diluted with water containing 0.5% (v/v) adjuvant MSO+1% (w/v) ammonium sulfate, and the cereal rye is subjected to foliar application using a boom sprayer at a spray volume of 189 L/ha to deliver 40 g/ha of epyrifenacil.

[3] = test system: cereal rye (Secale cereale); assay: Example 7: greenhouse pot test, foliar application, termination of cereal rye growth; type: in vivo; settings: for Dry matter weight: cereal rye above-ground parts at growth termination, average of 3 pots
Procedure: as §1, with “cereal rye (Secale cereale)” for “edible radish (Daikon Radish)”, “cereal rye” for “radish”
as §2, with “cereal rye” for “radish”, “g/L) or saflufenacil suspension (341 g/L)” for “g/L)”
as §3, with “cereal rye” for “radish”, “above-ground parts were harvested” for “entire plant was dug up”, “1.” for “2.”

radish (Tillage Radish) = assay: Example 2: outdoor boom-sprayer foliar application to overwintered radish at bolting stage; type: in vivo, Raphanus sativus; settings: 20 g/ha epyrifenacil, EC 55 g/L, 0.5% Agri-Dex + 1% ammonium sulfate, 150 L/ha
Procedure: At the bolting stage of radish (Tillage Radish) seeded in the autumn and overwintered outdoors after soybean cultivation, epyrifenacil emulsifiable concentrate (55 g/L) was diluted with water containing 0.5% (v/v) adjuvant Agri-Dex+1% (w/v) ammonium sulfate, and the radish is subjected to foliar application using a boom sprayer at a spray volume of 150 L/ha to deliver 20 g/ha of epyrifenacil.

[4] = test system: edible radish (Daikon Radish); assay: Example 10: outdoor pot test, foliar application, termination of radish growth; type: in vivo, Raphanus sativus; settings: outdoors, applied 24 days after seeding, epyrifenacil 20 g/ha, glyphosate-potassium salt 1,543 g/ha; for Growth termination date: death of terminal and lateral buds in all 7 pots; for Date at the beginning of the onset of effect: visual change in leaf color in all 7 pots, day relative to application
Procedure: as §1, with “outdoors. Twenty-four” for “in a greenhouse. Fifteen”, “1, 543” for “1,543”
as §2, with “Twenty-four” for “Twenty-one”, “[…]” for “1%”, “20” for “25”
At the same time, the radish was similarly seeded in another plastic pot and grown. Twenty-four days after seeding, the entire plant was dug up and the dry matter weight (hereinafter referred to as untreated dry matter weight) was measured.
(§4) The radish applied with the herbicide was grown outdoors after application with the herbicide, and in case the growth was terminated, the entire plant was dug up at termination of the growth and the dry matter weight was measured. In this test, the growth was judged to be terminated when death of terminal and lateral buds was visually confirmed. The date at the beginning of the onset of effect, the growth termination date, and the dry matter weight at the time of growth termination are shown in Table 4. The onset of the effect was judged by visually observing the change in leaf color. Application with each herbicide was performed using seven pots. The date at the beginning of the onset of effect and the growth termination date in the table were dates on which the onset of effect and growth termination were confirmed in all seven pots, respectively. The incremental dry matter weight was the value calculated by the following formula (2).
(§5) Incremental dry matter weight=average dry matter weight at the time of growth termination−average untreated dry matter weight 24 days after seeding Formula (2): • Average dry matter weight at the time of growth termination: average value of dry matter weights of 7 pots at the time of growth termination • Average untreated dry matter weight 24 days after seeding: average value of untreated dry matter weights of 7 pots

[5] = test system: cereal rye (Secale cereale); assay: Example 9: outdoor pot test, foliar application, termination of cereal rye growth; type: in vivo; settings: glyphosate-potassium salt 1,543 g/ha; for Growth termination date / Date at the beginning of the onset of effect: cereal rye, outdoors, applied 24 days after seeding, epyrifenacil/saflufenacil 20 g/ha; for Growth termination date: death of terminal and lateral buds in all 7 pots; for Date at the beginning of the onset of effect: visual change in leaf color in all 7 pots, day relative to application; for Incremental dry matter weight: cereal rye above-ground parts, average dry matter weight at growth termination minus average untreated dry matter weight 24 days after seeding (7 pots), epyrifenacil 20 g/ha
Procedure: as §1, with “cereal rye (Secale cereale)” for “edible radish (Daikon Radish)”, “outdoors. Twenty-four” for “in a greenhouse. Fifteen”, “cereal rye” for “radish”
as §2, with “cereal rye” for “radish”, “Twenty-four” for “Twenty-one”, “(55 g/L) or saflufenacil suspension (341” for “(55”, “20” for “25”
At the same time, the cereal rye was similarly seeded in another plastic pot and grown. Twenty-four days after seeding, the above-ground parts were harvested and the dry matter weight (hereinafter referred to as untreated dry matter weight) was measured.
as §4, with “cereal rye” for “radish”, “above-ground parts were harvested” for “entire plant was dug up”, “3.” for “4.”, “(1).” for “(2).”
as §5, with “(1):” for “(2):”

[6] = epyrifenacil 25 g/ha, glyphosate-potassium salt 1,543 g/ha
[7] = epyrifenacil 25 g/ha, glyphosate-potassium salt 1,543 g/ha, listed as epyrifenacil
[8] = radish, greenhouse, death of terminal and lateral buds in all 3 pots
[9] = cereal rye, greenhouse, death of terminal and lateral buds in all 3 pots, epyrifenacil/saflufenacil 25 g/ha applied 21 days after seeding, glyphosate-potassium salt 1,543 g/ha applied 15 days after seeding
[10] = listed as glyphosate-potassium salt

| Structure (SMILES) | Death of the barley observed (barley (Hordeum vulgare)) | Dry matter weight [1, 6] | Dry matter weight [1, 7] | Growth termination date [1, 8] | Date at the beginning of the onset of effect ([1]; radish, greenhouse) | Death of the cereal rye observed [2] | Dry matter weight [3, 6] | Dry matter weight [3, 7] | Growth termination date [3, 9] | Death of the radish observed (radish (Tillage Radish)) | Growth termination date [4] | Date at the beginning of the onset of effect [4] | Growth termination date [5] | Date at the beginning of the onset of effect [5] | Growth termination date (days after application) ([1]; radish, greenhouse, death of terminal and lateral buds in all 3 pots, epyrifenacil 25 g/ha, glyphosate-potassium salt 1,543 g/ha) | Growth termination date (days after application) ([3]; cereal rye, greenhouse, death of terminal and lateral buds in all 3 pots, epyrifenacil 25 g/ha, glyphosate-potassium salt 1,543 g/ha) | Date at the beginning of the onset of effect ([3]; cereal rye, greenhouse, visual change in leaf color in all 3 pots, day relative to application, epyrifenacil/saflufenacil 25 g/ha applied 21 days after seeding, glyphosate-potassium salt 1,543 g/ha applied 15 days after seeding) | Incremental dry matter weight [5] | Incremental dry matter weight [5, 10] | Growth termination date [5, 10] |
| --- | --- | --- | --- | --- | --- | --- | --- | --- | --- | --- | --- | --- | --- | --- | --- | --- | --- | --- | --- | --- |
| CCOC(=O)COc1ncccc1Oc1cc(-n2c(=O)cc(C(F)(F)F)n(C)c2=O)c(F)cc1Cl [Epyrifenacil, epyrifenacil] | 4 days after application | 905 kg/ha | biomass was greater | 24 Days after Days after seeding | On the day of | 4 days after application | 1,118 kg/ha | biomass was greater | 24 Days Days after seeding | 3 days after application | 7 Days after application and 7 Days after Days after application | Day after | 7 Days after application and 7 Days Days after application | Day after | – | – | – | – | – | – |
| O=C(O)CNCP(=O)(O)O [Glyphosate-potassium salt, glyphosate-potassium salt] | – | 360 kg/ha | – | 24 Days after Days after seeding | 7 Days after Days after application | – | 595 kg/ha | – | 24 Days Days after seeding | – | failed to terminate the growth | 10 Days Days after application | 21 Days Days after application | 7 Days after Days after application | seeding (9 days after application | seeding (9 days after application | 5 Days after Days after application | −42 Kg/ha | reduced biomass | 21 Days after application |
| CC(C)N(C)S(=O)(=O)NC(=O)c1cc(-n2c(=O)cc(C(F)(F)F)n(C)c2=O)c(F)cc1Cl [Saflufenacil, saflufenacil] | – | – | – | – | – | – | – | – | failed to terminate the growth | – | – | – | failed to terminate the growth | Day after | – | – | – | – | – | – |
